According to patent US20250002954A1, “Novel Compound, Use Thereof, and Method for Producing Same, and Compound-Containing Composition, Method for Producing 4-Trehalosamine, and Microorganism” (Microbial Chemistry Research Foundation, priority 2021, published 2025):

Tests used:
[1] = system: human ovarian cancer cells OVK18 and human malignant melanoma cells Mewo; assay: Autophagy inducing effect on cultured cells (western blotting of autophagy-related proteins); format: cell-based; conditions: 24 hours treatment, western blotting
Experimental: Expression and phosphorylation patterns of autophagy-related proteins when human ovarian cancer cells or human malignant melanoma cells were treated with 4-trehalosamine and trehalose analog for 24 hours were determined by western blotting.
Human ovarian cancer cells OVK18 (obtained from RIKEN BRC) and human malignant melanoma cells Mewo (JCRB0066) were each inoculated on a 12-well microplate at 8×10^4 cells/mL/well and cultured in DMEM culture medium at 37° C. for 72 hours, after which they were treated with test samples.
The test samples used were the 4-trehalosamine (4TA) obtained in the <Purification process> of production example 10, trehalose (TRH), the IMCTA-Cn compounds obtained in synthesis examples 1 to 8, trehalose ester (TRH-Cn) (manufactured by Dojindo Laboratories), n-dodecyl-β-D-maltoside (DDM), maltose (MLT), sucrose (SCR), and rapamycin (RM). Untreated cells without addition of compounds were used as control.
In treatment with the test samples, in order to avoid contact of a compound with locally high concentration with cells, a half of the culture fluid in each well was taken, and a required amount of test sample was dissolved in it. After dissolving it sufficiently, it was returned to the original well and treated at 37° C. for 24 hours.
Subsequently, culture medium containing the test samples was removed, washed once with PBS, and dissolved with 2×SDS sample buffer not containing 2-mercaptoethanol (2-ME) or bromphenol blue (BPB). After measuring the protein concentration in the dissolved sample with a BCA protein assay kit (manufactured by Thermo Fisher Scientific), 2-ME and BPB were added and the sample was boiled for 5 minutes, which was used as a sample for western blotting.
The western blotting was performed in a similar manner to test example 4 except that anti-LC3 antibody, which is a marker for autophagy, anti-p62, anti-cathepsin D antibody, anti-Phospho-Akt (Ser473) antibody, anti-Akt antibody, anti-Phospho-p70 S6K (T389) antibody, and anti-p70 S6K antibody (all manufactured by Cell Signaling Technology) were used at 1/2,000 dilution as the primary antibodies in the method described in test example 4.
The results for human ovarian cancer cells OVK18 are shown in FIGS. 20A to 20C, and the results for human malignant melanoma cells Mewo are shown in FIGS. 20D to 20F. In FIGS. 20A, 20B, 20D, and 20E, “PCD” denotes precursors of cathepsin D and “CD-HC” denotes cathepsin D heavy chain.

[2] = system: aggregated proteins Q74 and SynA53T in SH-SY5Y cells and NH-12 cells; assay: Elimination effect on aggregated protein in cells (Q74, SynA53T); format: cell-based, human; conditions: 100 mM 4-trehalosamine, 70 μM IMCTA-C14 or 100 mM trehalose, 14 hours; SH-SY5Y and NH-12 cells
Experimental: The effect of 4-trehalosamine or trehalose analog on Q74, which is partial peptide of huntingtin (Htt), the causal protein of Huntington's disease, and SynA53T, which is a mutation of α-synuclein, the causal protein of Parkinson's disease, (both aggregated proteins) was determined in the following manner.
Neuroblastoma cells SH-SY5Y (obtained from European Collection of Authenticated Cell Cultures (ECACC)) and human neuroblastoma cells NH-12 (obtained from RIKEN BRC) were each inoculated at 14×10^4 cells/mL and cultured in DMEM culture medium at 37° C. for 48 hours.
After the culture of SH-SY5Y cells and NH-12 cells, pEGFP-Q74 vector or EGFP-alphasynuclein-A53T (both obtained from addgene), which are expression vectors of aggregated protein, were transfected with transfection reagent (Viafect, manufactured by Promega). After 24 hours from the transfection, 100 mM 4-trehalosamine, 70 μM IMCTA-C14, or 100 mM trehalose was added and the cells were further treated for 14 hours. Untreated cells without addition of the compounds were used as control. After washing the cells three times with PBS, hyposmotic fluid (solution of one tablet of cOmplete, Mini, EDTA-free Protease Inhibitor Cocktail (CM, manufactured by Merck) in 50 mL of pure water) was added and the mixture was shaken on ice for 10 minutes. It was then centrifuged at 21,300×g for 10 minutes to be separated into soluble protein (Sol) and aggregated protein (Agg) […]. Thereafter, they were turned into samples for western blotting in a similar manner to test example 10-1.
The western blotting was performed in a similar manner to test example 4 except that anti-GFP antibody (manufactured by Proteintech) was used at 1/5,000 dilution and anti-LC3 antibody (manufactured by Cell Signaling Technology) was used at 1/2,000 dilution as the primary antibodies in the method described in test example 4. The results for neuroblastoma cells SH-SY5Y are shown in FIGS. 22A and 22B, and the results for human neuroblastoma cells NH-12 are shown in FIGS. 22C and 22D. […]

N[C@H]1[C@H](O)[C@@H](O)[C@@H](O[C@H]2O[C@H](CO)[C@@H](O)[C@H](O)[C@H]2O)O[C@@H]1CO [4-trehalosamine]
expression of LC3-II (autophagy marker) [1]: elevated expression of LC3-II | aggregate of Q74 and aggregate of SynA53T [2]: significantly decreased

OC[C@H]1O[C@@](CO)(O[C@H]2O[C@H](CO)[C@@H](O)[C@H](O)[C@H]2O)[C@@H](O)[C@@H]1O [sucrose]
expression of LC3-II (autophagy marker) [1]: expression of LC3-II was also observed

OC[C@H]1O[C@H](O[C@H]2O[C@H](CO)[C@@H](O)[C@H](O)[C@H]2O)[C@H](O)[C@@H](O)[C@@H]1O [trehalose, reference compound]
aggregate of Q74 and aggregate of SynA53T [2]: significantly decreased
